Patent US20250064859A1, “HPSC-DERIVED ARTICULAR CHONDROCYTE COMPOSITIONS, SYSTEMS AND METHODS OF USE THEREOF” (The Children's Medical Center Corporation, priority 2022, published 2025)

Key:
Format in all cases: cell-based, human
paraxial mesoderm = test: Chondrogenic potential of day 14 paraxial mesoderm induced with (420i) or without (420) the Wnt inhibitor in stage 2; conditions: 420 mesoderm treated with the Wnt inhibitor from day 3-5 of differentiation/stage 2
Method: Five experiments were conducted, and qPCR tests were performed on the cells after 4 weeks and the data was pooled and analyzed. In a second test, 420 and 420i paraxial mesoderm cells were plated in micromass cultures supplemented with TGFβ and qPCR was performed after 12 weeks of micromass expansion. In a third test, 420 and 420i paraxial mesoderm cells were plated in serum-free monolayer culture with no additional factors and qPCR was performed following 4 weeks of culture. A second group of 420 and 420i paraxial mesoderm cells were plated in serum-free monolayer culture supplemented with either FGF alone or with a mixture of FGF, TGFβ and Forskolin (FSK). qPCR was performed after 4 weeks in culture.

[1] = system: micromass cultures (hPSC-derived articular cartilage tissues); test: BMP4 challenge of TGFβ3-treated micromass cultures; COL10A1 mRNA normalized to TBP
From the text: FIGS. 17A-17C depict copy number COL10A1 mRNA normalized to TBP in micromass cultures at indicated timepoints and treatment regimens. FIG. 17A depicts copy number COL10A1 mRNA in micromass cultures treated with TGFB3 from 2-24 weeks, and in TGFB3-treated micromass cultures that were switched to BMP4-supplemented media after 2 weeks (BMP4 @2w), 2 weeks, and 4, 6, 8, 10, 12 weeks in which gene expression was quantified after 2, 6, 12, or 24 weeks after switching media to BMP4-supplementation. FIG. 17B and FIG. 17C depict copy number PRG4 (FIG. 17B) and COL10A1 (FIG. 17C) in micromass cultures after 2, 6, 12, and 24 weeks (w).
FIGS. 17A-C depict copy number COL10A1 mRNA normalized to TBP in micromass cultures at indicated timepoints and treatment regimens. […] Data represents average of 4 biological replicates, error bars indicate standard error.

[2] = system: monolayer-derived chondrocytes; test: Micromasses seeded with monolayer-derived chondrocytes and treated with TGFβ or BMP; phenotype and qPCR; conditions: for cartilage phenotype induced in micromass culture: monolayer-derived chondrocytes plated in micromass
From the text: FIGS. 9A-9C are bar graphs showing relative mRNA copy number for COL10A1 (growth plate cartilage marker) (FIG. 9A), PRG4 (articular cartilage marker) (FIG. 9B) and COL2A1 (general cartilage marker) (FIG. 9C) of monolayer-derived chondrocytes (derived with either FGF-alone or the combination of TGFβ+FGF+FSK treatment) that were subsequently cultured in micromass for 6 weeks in the presence of TGFβ or BMP4 to generate articular or growth plate-like chondrocytes and cartilage tissues. FIGS. 9D-9F are bar graphs showing mRNA copy number for COL10A1 (FIG. 9D), PRG4 (FIG. 9E) and COL2A1 (FIG. 9F) of monolayer-derived chondrocytes (derived with either FGF-alone or the combination of TGFβ+FGF+FSK treatment) that were subsequently cultured in micromass (uM) for 12 weeks in the presence of TGFβ or BMP4 to generate articular or growth plate-like chondrocytes and cartilage tissues.
Micromasses were seeded with monolayer-derived chondrocytes and were treated with TGFβ to induce articular cartilage (i.e., to reproduce “superficial zone-like” chondrocytes that express PRG4) or with BMP to induce growth plate cartilage (GPC; i.e., to produce hypertrophic chondrocytes that express COL10A1). Monolayer-derived chondrocytes were generated with the following compositions: FGF alone or TGF+FGF+FSK30.

| Molecule | chondrogenic potential of paraxial mesoderm (paraxial mesoderm) | COL10A1 mRNA response to BMP4 challenge ([1]; micromass treated with TGFβ for 8 weeks or less prior to BMP4) | COL10A1 mRNA response to BMP4 challenge ([1]; micromass treated with TGFβ for at least 10 weeks prior to BMP4) | COL10A1 (hypertrophic chondrocyte/GPC gene) expression ([2]; micromass, regardless of monolayer treatment prior to micromass culture) | cartilage phenotype induced in micromass culture [2] | PRG4 (articular cartilage gene) expression ([2]; micromass) |
| --- | --- | --- | --- | --- | --- | --- |
| Cc1ccc2nc(NC(=O)CSc3nc4c(c(=O)n3-c3ccccc3)SCC4)sc2c1 [IWP2, N-(6-Methyl-2-benzothiazolyl)-2-[(3,4,6,7-tetrahydro-4-oxo-3-phenylthieno[3,2-d]pyrimidin-2-yl)thio]-acetamide] | increased chondrogenic potential |  |  |  |  |  |
| BMP4: Bone Morphogenetic Protein 4, used to induce growth plate cartilage |  | upregulate COL10A1 mRNA | do not upregulate COL10A1 mRNA | higher | induces growth plate cartilage phenotype |  |
| TGFB: transforming growth factor β3, TGFβ agonist used to induce articular cartilage |  |  |  |  | induces articular-like cartilage phenotype | higher |
